The text below walks through data of publication PMC5218480 (PLoS ONE, 2017).

The assay has as its system MV-4-11 cells. Nature of the assay: Gene expression microarray analysis (Affymetrix PrimeView) and GSEA. As to conditions: ProbeSet 11728443_a_at; LIST B. The class given is cell-based, human. Details: RFU PODN (11730768_x_at) / Fold change /veh PODN (11730768_x_at) / RFU LINC00158 (11744669_a_at) / Fold change /veh LINC00158 (11744669_a_at) / RFU DUSP10 (11751237_a_at) / Fold change /veh DUSP10 (11751237_a_at) / RFU ID3 (11757404_x_at) / Fold change /veh ID3 (11757404_x_at) / RFU PLEKHG5 (11737974_s_at) / Fold change /veh PLEKHG5 (11737974_s_at) / RFU LRRC4B (11730491_at) / Fold change /veh LRRC4B (11730491_at) / RFU GIMAP4 (11747438_a_at) / Fold change /veh GIMAP4 (11747438_a_at) / RFU KRT8 (11758183_x_at) / Fold change /veh KRT8 (11758183_x_at) / RFU CNN1 (11734310_a_at) / Fold change /veh CNN1 (11734310_a_at) / RFU VPS37D (11726825_at) / Fold change /veh VPS37D (11726825_at) / RFU C10orf10 (11716522_x_at) / Fold change /veh C10orf10 (11716522_x_at) / RFU KIR2DL2 /// KIR2DL4 /// KIR2DL5A /// KIR2DL5B /// KIR2DS1 /// KIR2DS2 /// KIR2DS3 /// KIR2DS4 /// KIR3DL3 /// KIR3DL3 /// KIR3DS1 (11738374_at) / Fold change /veh KIR2DL2 /// KIR2DL4 /// KIR2DL5A /// KIR2DL5B /// KIR2DS1 /// KIR2DS2 /// KIR2DS3 /// KIR2DS4 /// KIR3DL3 /// KIR3DL3 /// KIR3DS1 (11738374_at) / RFU C1QL1 (11718748_at) / Fold change /veh C1QL1 (11718748_at) / RFU TMPRSS4 (11747572_a_at) / Fold change /veh TMPRSS4 (11747572_a_at) / RFU HAMP (11756126_x_at) / Fold change /veh HAMP (11756126_x_at) / RFU RNFT2 (11725882_a_at) / Fold change /veh RNFT2 (11725882_a_at) / RFU NR4A2 (11747474_a_at) / Fold change /veh NR4A2 (11747474_a_at) / RFU ABCC12 (11746883_a_at) / Fold change /veh ABCC12 (11746883_a_at) / RFU TMEM136 (11760407_x_at) / Fold change /veh TMEM136 (11760407_x_at) / RFU CLDN22 /// WWC2 (11732394_at) / Fold change /veh CLDN22 /// WWC2 (11732394_at) / RFU HLA-DPB1 (11760878_x_at) / Fold change /veh HLA-DPB1 (11760878_x_at) / RFU SPINT1 (11716480_a_at) / Fold change /veh SPINT1 (11716480_a_at) / RFU GAP43 (11754022_s_at) / Fold change /veh GAP43 (11754022_s_at) / RFU A4GNT (11735810_at) / Fold change /veh A4GNT (11735810_at) / RFU PRB3 (11715151_x_at) / Fold change /veh PRB3 (11715151_x_at) / RFU TUBB4B (11761932_at) / Fold change /veh TUBB4B (11761932_at) / RFU CAPN14 (11732068_a_at) / Fold change /veh CAPN14 (11732068_a_at) / RFU TMCC2 (11721928_a_at) / Fold change /veh TMCC2 (11721928_a_at) / RFU IRGQ (11745062_a_at) / Fold change /veh IRGQ (11745062_a_at) / RFU FAM174B (11720279_a_at) / Fold change /veh FAM174B (11720279_a_at) / RFU TMPRSS4 (11748680_a_at) / Fold change /veh TMPRSS4 (11748680_a_at) / RFU FAM212B (11763350_a_at) / Fold change /veh FAM212B (11763350_a_at) / RFU PLEKHG5 (11743358_a_at) / Fold change /veh PLEKHG5 (11743358_a_at) / RFU ZSCAN30 (11745921_a_at) / Fold change /veh ZSCAN30 (11745921_a_at) / RFU CMKLR1 (11741424_a_at) / Fold change /veh CMKLR1 (11741424_a_at) / RFU LOC101060620 /// MAPK8IP1 (11723275_at) / Fold change /veh LOC101060620 /// MAPK8IP1 (11723275_at) / RFU SPTSSB (11747773_x_at) / Fold change /veh SPTSSB (11747773_x_at) / RFU PRSS12 (11739890_at) / Fold change /veh PRSS12 (11739890_at) / RFU BIN1 (11741810_x_at) / Fold change /veh BIN1 (11741810_x_at) / RFU WNT11 (11732464_a_at) / Fold change /veh WNT11 (11732464_a_at) / RFU C10orf10 (11716521_a_at) / Fold change /veh C10orf10 (11716521_a_at) / RFU C5orf56 (11738089_at) / Fold change /veh C5orf56 (11738089_at) / RFU CYB561 (11721691_x_at) / Fold change /veh CYB561 (11721691_x_at) / RFU ANKRD19P (11752326_a_at) / Fold change /veh ANKRD19P (11752326_a_at) / RFU OR2T12 /// OR2T33 /// OR2T8 (11738714_s_at) / Fold change /veh OR2T12 /// OR2T33 /// OR2T8 (11738714_s_at) / RFU VCAN (11748164_a_at) / Fold change /veh VCAN (11748164_a_at) / RFU JSRP1 (11732532_at) / Fold change /veh JSRP1 (11732532_at) / RFU KRTAP10-11 (11738290_x_at) / Fold change /veh KRTAP10-11 (11738290_x_at) / RFU MYO3A (11730013_a_at) / Fold change /veh MYO3A (11730013_a_at) / RFU EBF3 (11725865_a_at) / Fold change /veh EBF3 (11725865_a_at) / RFU CAMK2N1 (11719241_x_at) / Fold change /veh CAMK2N1 (11719241_x_at) / RFU C5orf56 (11738088_a_at) / Fold change /veh C5orf56 (11738088_a_at) / RFU OLFML3 (11715873_a_at) / Fold change /veh OLFML3 (11715873_a_at) / RFU LOC100653217 /// NTM (11731650_a_at) / Fold change /veh LOC100653217 /// NTM (11731650_a_at) / RFU MAPK11 (11762145_a_at) / Fold change /veh MAPK11 (11762145_a_at) / RFU FIZ1 (11724087_x_at) / Fold change /veh FIZ1 (11724087_x_at) / RFU OASL (11726364_x_at) / Fold change /veh OASL (11726364_x_at) / RFU SOX15 (11748057_x_at) / Fold change /veh SOX15 (11748057_x_at) / RFU CD79A (11719716_a_at) / Fold change /veh CD79A (11719716_a_at) / RFU HIST1H1D (11736915_at) / Fold change /veh HIST1H1D (11736915_at) / RFU CASKIN2 (11723855_a_at) / Fold change /veh CASKIN2 (11723855_a_at) / RFU LOC730098 (11760151_x_at) / Fold change /veh LOC730098 (11760151_x_at) / RFU OR4N2 (11742367_at) / Fold change /veh OR4N2 (11742367_at) / RFU PRRT2 (11749266_a_at) / Fold change /veh PRRT2 (11749266_a_at) / RFU SNX32 (11753110_a_at) / Fold change /veh SNX32 (11753110_a_at) / RFU CDHR5 (11726645_a_at) / Fold change /veh CDHR5 (11726645_a_at) / RFU RCAN1 (11760418_a_at) / Fold change /veh RCAN1 (11760418_a_at) / RFU FAM167A (11723789_a_at) / Fold change /veh FAM167A (11723789_a_at) / RFU FAM26E (11764081_at) / Fold change /veh FAM26E (11764081_at) / RFU ISYNA1 (11749810_s_at) / Fold change /veh ISYNA1 (11749810_s_at) / RFU ACY1 (11761880_at) / Fold change /veh ACY1 (11761880_at) / RFU 11764098_at / Fold change /veh 11764098_at / RFU SAMD14 (11745864_x_at) / Fold change /veh SAMD14 (11745864_x_at) / RFU NPB (11741838_a_at) / Fold change /veh NPB (11741838_a_at) / RFU TMPRSS6 (11731388_a_at) / Fold change /veh TMPRSS6 (11731388_a_at) / RFU KRTAP10-2 (11738614_at) / Fold change /veh KRTAP10-2 (11738614_at) / RFU ARHGAP8 /// PRR5-ARHGAP8 (11727945_x_at) / Fold change /veh ARHGAP8 /// PRR5-ARHGAP8 (11727945_x_at) / RFU KRTAP5-7 /// NADSYN1 (11734609_at) / Fold change /veh KRTAP5-7 /// NADSYN1 (11734609_at) / RFU RASL12 (11751679_a_at) / Fold change /veh RASL12 (11751679_a_at) / RFU CDKN2B (11736163_a_at) / Fold change /veh CDKN2B (11736163_a_at) / RFU PRF1 (11729649_at) / Fold change /veh PRF1 (11729649_at) / RFU, ZNF638 /// ZNF638-IT1 / Fold change vs veh, ZNF638 /// ZNF638-IT1 / RFU, PANK3 / Fold change vs veh, PANK3 / RFU, SH3YL1 / Fold change vs veh, SH3YL1 / RFU, ZEB2 / Fold change vs veh, ZEB2 / RFU, NRIP1 / Fold change vs veh, NRIP1 / RFU, PTTG1IP / Fold change vs veh, PTTG1IP / RFU, CAPN2 / Fold change vs veh, CAPN2 / RFU, MED14 / Fold change vs veh, MED14 / RFU, SNORA58 / Fold change vs veh, SNORA58 / RFU, C1orf63 / Fold change vs veh, C1orf63 / RFU, LRRFIP1 / Fold change vs veh, LRRFIP1 / RFU, NDUFAF7 / Fold change vs veh, NDUFAF7 / RFU, SLC12A2 / Fold change vs veh, SLC12A2 / RFU, IBTK / Fold change vs veh, IBTK / RFU, ESF1 / Fold change vs veh, ESF1 / Fold change vs veh, TMEM50B / RFU, TAOK1 / Fold change vs veh, TAOK1 / RFU, ACBD3 / Fold change vs veh, ACBD3 / RFU, TMA16 / Fold change vs veh, TMA16 / RFU, RWDD3 / Fold change vs veh, RWDD3 / RFU, BCAT1 / Fold change vs veh, BCAT1 / RFU, EDEM3 / Fold change vs veh, EDEM3 / RFU, TMEM33 / Fold change vs veh, TMEM33 / RFU, WDR75 / Fold change vs veh, WDR75 / RFU, AHCTF1 / Fold change vs veh, AHCTF1 / RFU, TFRC / Fold change vs veh, TFRC / RFU, ZDHHC17 / Fold change vs veh, ZDHHC17 / RFU, NOM1 / Fold change vs veh, NOM1 / RFU, ARL8B / Fold change vs veh, ARL8B / RFU, ZBTB11 / Fold change vs veh, ZBTB11 / RFU, TAMM41 / Fold change vs veh, TAMM41 / RFU, KIAA1704 /// LOC100996395 / Fold change vs veh, KIAA1704 /// LOC100996395 / RFU, ING1 / Fold change vs veh, ING1 / RFU, TRMT61B / Fold change vs veh, TRMT61B / RFU, FUBP3 / Fold change vs veh, FUBP3 / RFU, TP53 / Fold change vs veh, TP53 / RFU, TNKS2 / Fold change vs veh, TNKS2 / RFU, ZFP14 / Fold change vs veh, ZFP14 / RFU, ACTR2 / Fold change vs veh, ACTR2 / RFU, PPP3R1 / Fold change vs veh, PPP3R1 / RFU, PIK3R1 / Fold change vs veh, PIK3R1 / RFU, HNRNPA1 / Fold change vs veh, HNRNPA1 / RFU, RNF170 / Fold change vs veh, RNF170 / RFU, ZNF28 / Fold change vs veh, ZNF28 / RFU, RNGTT / Fold change vs veh, RNGTT / RFU, OGT / Fold change vs veh, OGT / RFU, BRD1 / Fold change vs veh, BRD1 / RFU, MARS / Fold change vs veh, MARS / RFU, ZNF655 / Fold change vs veh, ZNF655 / RFU, FAHD1 / Fold change vs veh, FAHD1 / RFU, BDP1 / Fold change vs veh, BDP1 / RFU, LRRCC1 / Fold change vs veh, LRRCC1 / RFU, ARID1A / Fold change vs veh, ARID1A / RFU, ZNF146 / Fold change vs veh, ZNF146 / RFU, ZNF330 / Fold change vs veh, ZNF330 / RFU, GPN3 / Fold change vs veh, GPN3 / RFU, C9orf123 / Fold change vs veh, C9orf123 / RFU, N4BP2L2 / Fold change vs veh, N4BP2L2 / RFU, ARFIP1 / Fold change vs veh, ARFIP1 / RFU, FAM179B / Fold change vs veh, FAM179B / RFU, BCL10 / Fold change vs veh, BCL10 / RFU, UHRF1BP1L / Fold change vs veh, UHRF1BP1L / RFU, BET1 / Fold change vs veh, BET1 / RFU, CNOT2 / Fold change vs veh, CNOT2 / RFU, ZNF268 / Fold change vs veh, ZNF268 / Fold change vs veh, ZNF507 / RFU, DGCR2 / Fold change vs veh, DGCR2 / RFU, WDSUB1 / Fold change vs veh, WDSUB1 / Fold change vs veh, HSP90B1 /// MIR3652 / RFU, ADSS / Fold change vs veh, ADSS / RFU, GK / Fold change vs veh, GK / RFU, ZNF148 / Fold change vs veh, ZNF148 / RFU, TAF9 / Fold change vs veh, TAF9 / RFU, SLC1A5 / Fold change vs veh, SLC1A5 / RFU, SLMO2 / Fold change vs veh, SLMO2 / RFU, ABCC4 / Fold change vs veh, ABCC4 / RFU, LOC101060439 /// RAP1B / Fold change vs veh, LOC101060439 /// RAP1B / RFU, RFX7 / Fold change vs veh, RFX7 / RFU, GTPBP10 / Fold change vs veh, GTPBP10 / RFU, CNEP1R1 / Fold change vs veh, CNEP1R1 / RFU, BIVM-ERCC5 /// ERCC5 / Fold change vs veh, BIVM-ERCC5 /// ERCC5 / RFU, ILF3 / Fold change vs veh, ILF3 / RFU 11762660_at / Fold change /veh 11762660_at / RFU VCAN (11757783_s_at) / Fold change /veh VCAN (11757783_s_at) / RFU DDX43 (11728927_at) / Fold change /veh DDX43 (11728927_at) / RFU KRT8 (11758188_x_at) / Fold change /veh KRT8 (11758188_x_at) / RFU NKD1 (11759106_at) / Fold change /veh NKD1 (11759106_at) / RFU SRD5A1 (11742802_a_at) / Fold change /veh SRD5A1 (11742802_a_at) / RFU TPSAB1 /// TPSB2 (11721975_s_at) / Fold change /veh TPSAB1 /// TPSB2 (11721975_s_at) / RFU GSTM3 (11746129_a_at) / Fold change /veh GSTM3 (11746129_a_at) / RFU IL23R (11737362_x_at) / Fold change /veh IL23R (11737362_x_at) / RFU TMEM51 (11727254_a_at) / Fold change /veh TMEM51 (11727254_a_at) / RFU PIWIL2 (11732686_x_at) / Fold change /veh PIWIL2 (11732686_x_at) / RFU ORM1 (11744905_x_at) / Fold change /veh ORM1 (11744905_x_at) / RFU CCDC152 (11743942_at) / Fold change /veh CCDC152 (11743942_at) / RFU ECM1 (11717891_a_at) / Fold change /veh ECM1 (11717891_a_at) / RFU IL23R (11748794_a_at) / Fold change /veh IL23R (11748794_a_at) / RFU TNFAIP8L3 (11732012_x_at) / Fold change /veh TNFAIP8L3 (11732012_x_at) / RFU MBOAT4 (11741988_at) / Fold change /veh MBOAT4 (11741988_at) / RFU 11764193_at / Fold change /veh 11764193_at / RFU TMEM53 (11763286_at) / Fold change /veh TMEM53 (11763286_at) / RFU MAGEB2 (11727129_at) / Fold change /veh MAGEB2 (11727129_at) / RFU TMEM200A (11744735_a_at) / Fold change /veh TMEM200A (11744735_a_at) / RFU CCDC152 (11751479_a_at) / Fold change /veh CCDC152 (11751479_a_at) / RFU FAM211A (11726209_a_at) / Fold change /veh FAM211A (11726209_a_at) / RFU RGS16 (11746705_a_at) / Fold change /veh RGS16 (11746705_a_at) / RFU VCAN (11755009_s_at) / Fold change /veh VCAN (11755009_s_at) / RFU RHOB (11743442_s_at) / Fold change /veh RHOB (11743442_s_at) / RFU RGS16 (11720943_a_at) / Fold change /veh RGS16 (11720943_a_at) / RFU RGS16 (11720944_at) / Fold change /veh RGS16 (11720944_at) / RFU, VPS4B / Fold change vs veh, VPS4B / RFU, CREB1 / Fold change vs veh, CREB1 / RFU, DNAJC13 / Fold change vs veh, DNAJC13 / RFU, GNAQ / Fold change vs veh, GNAQ / RFU, CDK5R1 / Fold change vs veh, CDK5R1 / RFU, ZRANB3 / Fold change vs veh, ZRANB3 / RFU, CUL4A / Fold change vs veh, CUL4A / RFU, CCNY / Fold change vs veh, CCNY / RFU, UFL1 / Fold change vs veh, UFL1 / RFU, COG3 / Fold change vs veh, COG3 / RFU, DIAPH2 / Fold change vs veh, DIAPH2 / RFU, SKA2 / Fold change vs veh, SKA2 / RFU, AFF3 / Fold change vs veh, AFF3 / RFU, LMF1 / Fold change vs veh, LMF1 / RFU, IPO11 / Fold change vs veh, IPO11 / RFU, DFFB / Fold change vs veh, DFFB / RFU, FOXP1 / Fold change vs veh, FOXP1 / RFU, CARD8 / Fold change vs veh, CARD8 / RFU, STRN3 / Fold change vs veh, STRN3 / RFU, ADK / Fold change vs veh, ADK / RFU, RASSF2 / Fold change vs veh, RASSF2 / RFU, WIPF1 / Fold change vs veh, WIPF1 / RFU, LARP1B / Fold change vs veh, LARP1B / RFU, RASA1 / Fold change vs veh, RASA1 / RFU, RB1 / Fold change vs veh, RB1 / RFU, PPFIA1 / Fold change vs veh, PPFIA1 / RFU, MAT2A / Fold change vs veh, MAT2A / RFU, CCT5 / Fold change vs veh, CCT5 / RFU, WDR92 / Fold change vs veh, WDR92 / RFU, CUX1 / Fold change vs veh, CUX1 / RFU, TTC7A / Fold change vs veh, TTC7A / RFU, TMEM135 / Fold change vs veh, TMEM135 / RFU, DEPTOR / Fold change vs veh, DEPTOR / RFU, CPM / Fold change vs veh, CPM / RFU, DNAJB6 / Fold change vs veh, DNAJB6 / RFU, CACNA2D3 / Fold change vs veh, CACNA2D3 / RFU, DTX4 / Fold change vs veh, DTX4 / RFU, TFCP2 / Fold change vs veh, TFCP2 / RFU, GMCL1 /// GMCL1P1 / Fold change vs veh, GMCL1 /// GMCL1P1 / RFU, AEBP2 / Fold change vs veh, AEBP2 / RFU, SNHG1 /// SNORD22 /// SNORD25 /// SNORD26 /// SNORD27 /// SNORD28 /// SNORD29 /// SNORD31 / Fold change vs veh, SNHG1 /// SNORD22 /// SNORD25 /// SNORD26 /// SNORD27 /// SNORD28 /// SNORD29 /// SNORD31 / Fold change (Aza/veh), C12orf56 (ProbeSet 11735607_a_at) / Fold change (ACY-1035/veh), C12orf56 (ProbeSet 11735607_a_at) / Fold change (Aza/veh), FGFR1OP (ProbeSet 11751329_s_at) / Fold change (ACY-1035/veh), FGFR1OP (ProbeSet 11751329_s_at) / Fold change (Aza/veh), VPS36 (ProbeSet 11739960_a_at) / Fold change (ACY-1035/veh), VPS36 (ProbeSet 11739960_a_at) / RFU SYPL1 (11715823_x_at) / Fold change /veh SYPL1 (11715823_x_at) / RFU IGFBP7 (11715501_s_at) / Fold change /veh IGFBP7 (11715501_s_at) / RFU REEP3 (11722064_at) / Fold change /veh REEP3 (11722064_at) / RFU IGLL1 (11728026_x_at) / Fold change /veh IGLL1 (11728026_x_at): dose or concentration left out as unconfirmed.

In the case of `Nc1ncn([C@@H]2O[C@H](CO)[C@@H](O)[C@H]2O)c(=O)n1` [azacitidine], the “Fold change vs veh, TAOK1” value came out at 0.96.
